According to patent US4678783A, “Substituted isoquinolinesulfonyl compounds” (Asahi Kasei Kogyo Kabushiki Kaisha, priority 1984, dated 1987):
pEC50: −log10 of the molar value.

What was measured:
[1] = system: mesenteric artery of a rabbit; assay: Relaxation of Mesenteric Artery (KCl-contracted spiral strip); set-up: species or system rabbit of Japanese local variety; conditions: Oryctolagus cuniculus; concentration of the hydrochloride attaining 50% of complete relaxation; rabbit mesenteric artery contracted with KCl; read-out: ED50 (the source's name)
Description: A rabbit of Japanese local variety weighing about 3 kg was subjected to blood-letting to death. Then, abdomen of the rabbit was dissected to pick up a mesenteric artery. […] Thus, the shrinkage and relaxation of the artery was ready to be measured as a load on the transducer. To the organ bath, KCl was added in an amount which makes the artery shrink at a half length that in 15 to 20 mM aqueous solution. Then, hydrochlorides of the compounds of the present invention were added to the organ bath to observe relaxation effect on the artery.
Effect of the compounds of the present invention on relaxation of mesenteric artery was examined according to the method as mentioned hereinbefore.

[2] = system: male spontaneously hypertensive rats (SHR); assay: Reduction of Blood Pressure (systolic, tail plethysmographic method, oral); type: in vivo, rat (SHR, Wister Kyoto)
Description: Male spontaneously hypertensive rats (SHR, Wister Kyoto) weighing 300 to 350 g were used. Systolic blood pressure was measured indirectly by the tail plethysmographic method in conscious SHR, just prior to, and 1, 2, 4 and 6 hours after oral administration of test drugs. Test drugs, dissolved in deionized water, were administered orally in a volume of 10 ml-solution/kg-rat. Reduction in systolic blood pressure (ΔP, mmHg) was calculated by substracting a systolic blood pressure after administration from that just prior to administration.
Effect of the compounds of the present invention on reduction of blood pressure was examined according to the method as mentioned hereinbefore.

pEC50 [1] | Compound | ΔPmax (maximally reduced blood pressure) ([2]; 50 mg/kg) [mmHg] | ΔPmax (maximally reduced blood pressure) ([2]; 100 mg/kg) [mmHg]
5.40 | CC(C)CC1CN(S(=O)(=O)c2cccc3cnccc23)CCCN1 (stereo not drawn) [Compound (9), 1-(5-isoquinolinesulfonyl)-3-isobutylhomopiperazine] | – | –
5.40 | CCCCC(CN)NS(=O)(=O)c1cccc2c(Cl)nccc12 (stereo not drawn) [Compound (27), N-(1-aminomethylpentyl)-1-chloro-5-isoquinolinesulfonamide] | 45 | –
5.22 | CCC1CN(S(=O)(=O)c2cccc3cnccc23)CCCN1 (stereo not drawn) [Compound (7), 1-(5-isoquinolinesulfonyl)-3-ethylhomopiperazine] | – | –
5.00 | CC(C)C(N)CNS(=O)(=O)c1cccc2c(Cl)nccc12 (stereo not drawn) [Compound (28), N-(2-amino-3-methylbutyl)-1-chloro-5-isoquinolinesulfonamide] | 58 | –
4.70 | CC(C)C(N)CNS(=O)(=O)c1cccc2c(O)nccc12 (stereo not drawn) [Compound (51), N-(2-amino-3-methylbutyl)-1-hydroxy-5-isoquinolinesulfonamide] | 71 | –
5.10 | CC1CN(S(=O)(=O)c2cccc3c(O)nccc23)C(C)CN1C(=N)N (stereo not drawn) [Compound (69), 1-(1-hydroxy-5-isoquinolinesulfonyl)-4-amidino-2,5-dimethylpiperazine] | – | 51
4.64 | CC(C)(CCNS(=O)(=O)c1cccc2c(O)nccc12)NC(=N)N [Compound (60), N-(3-guanidino-3-methylbutyl)-1-hydroxy-5-isoquinolinesulfonamide] | – | 61
4.68 | CC1CN(S(=O)(=O)c2cccc3c(O)nccc23)C(C)CN1 (stereo not drawn) [Compound (64), 1-(1-hydroxy-5-isoquinolinesulfonyl)-2,5-dimethylpiperazine] | – | 65
4.92 | CCNCCNS(=O)(=O)c1cccc2c(Cl)nccc12 [Compound (71), N-(2-ethylaminoethyl)-1-chloro-5-isoquinolinesulfonamide] | – | –
5.00 | NCCNS(=O)(=O)c1cccc2c(O)nccc12 [Compound (47), N-(2-aminoethyl)-1-hydroxy-5-isoquinolinesulfonamide] | 43 | –
4.68 | CN1CCN(S(=O)(=O)c2cccc3c(Cl)nccc23)CC1 [Compound (42), 1-(1-chloro-5-isoquinolinesulfonyl)-4-methylpiperazine] | – | 56
5.40 | CC1CNCCCN1S(=O)(=O)c1cccc2cnccc12 (stereo not drawn) [Compound (2), 1-(5-isoquinolinesulfonyl)-2-methylhomopiperazine] | – | –
4.89 | CC(C)CC1CN(S(=O)(=O)c2cccc3c(Cl)nccc23)CCN1 (stereo not drawn) [Compound (40), 1-(1-chloro-5-isoquinolinesulfonyl)-3-isobutylpiperazine] | – | 51
5.15 | NCCCCNS(=O)(=O)c1cccc2c(Cl)nccc12 [Compound (25), N-(4-aminobuthyl)-1-chloro-5-isoquinolinesulfonamide] | – | 50
4.96 | CCCNCCNS(=O)(=O)c1cccc2c(Cl)nccc12 [Compound (72), N-(2-propylaminoethyl)-1-chloro-5-isoquinolinesulfonamide] | – | –
4.77 | CN(CCNS(=O)(=O)c1cccc2c(O)nccc12)C1CCCCC1 [Compound (53), N-[2-(N-cyclohexyl-N-methylamino)ethyl]-1-hydroxy-5-isoquinolinesulfonamide] | 56 | –
4.82 | NCCCCNS(=O)(=O)c1cccc2c(O)nccc12 [Compound (48), N-(4-aminobutyl)-1-hydroxy-5-isoquinolinesulfonamide] | – | 51
5.10 | CC(C)C(CNS(=O)(=O)c1cccc2c(Cl)nccc12)NC(=N)N (stereo not drawn) [Compound (35), N-(2-guanidino-3-methylbutyl)-1-chloro-5-isoquinolinesulfonamide] | – | 33
5.40 | CC(CNC(=N)N)NS(=O)(=O)c1cccc2c(Cl)nccc12 (stereo not drawn) [Compound (33), N-(2-guanidino-1-methylethyl)-1-chloro-5-isoquinolinesulfonamide] | – | 51
5.10 | CN1CCCN(S(=O)(=O)c2cccc3cnccc23)CC1 [Compound (19), 1-(5-isoquinolinesulfonyl)-4-methylhomopiperazine] | – | –
5.40 | N=C(N)N1CCN(S(=O)(=O)c2cccc3c(O)nccc23)CC1 [Compound (66), 1-(1-hydroxy-5-isoquinolinesulfonyl)-4-amidinopiperazine] | – | 43
5.15 | CCCCC(CN)NS(=O)(=O)c1cccc2c(O)nccc12 (stereo not drawn) [Compound (50), N-(1-aminomethylpentyl)-1-hydroxyl-5-isoquinolinesulfonamide] | 28 | –

pEC50 [1] | Compound | ΔPmax (maximally reduced blood pressure) ([2]; 50 mg/kg) [mmHg] | ΔPmax (maximally reduced blood pressure) ([2]; 100 mg/kg) [mmHg]
4.96 | CCCCC(CNC(=N)N)NS(=O)(=O)c1cccc2c(O)nccc12 (stereo not drawn) [Compound (57), N-(1-guanidinomethylpentyl)-1-hydroxy-5-isoquinolinesulfonamide] | – | 38
4.96 | CC(CCNS(=O)(=O)c1cccc2c(Cl)nccc12)CNC(=N)N (stereo not drawn) [Compound (37), N-(4-guanidino-3-methylbutyl)-1-chloro-5-isoquinolinesulfonamide] | – | 31
4.92 | CCCCCCC1CNCCN(S(=O)(=O)c2cccc3cnccc23)C1 (stereo not drawn) [Compound (16), 1-(5-isoquinolinesulfonyl)-6-hexylhomopiperazine] | – | –
4.85 | CC(CNC(=N)N)NS(=O)(=O)c1cccc2c(O)nccc12 (stereo not drawn) [Compound (56), N-(2-guanidino-1-methylethyl)-1-hydroxy-5-isoquinolinesulfonamide] | – | 45
4.96 | CCCC1CNCCN(S(=O)(=O)c2cccc3cnccc23)C1 (stereo not drawn) [Compound (13), 1-(5-isoquinolinesulfonyl)-6-propylhomopiperazine] | – | –
5.10 | CCCCNCCNS(=O)(=O)c1cccc2c(Cl)nccc12 [Compound (73), N-(2-butylaminoethyl)-1-chloro-5-isoquinolinesulfonamide] | – | –
5.22 | CCCCCCNCCNS(=O)(=O)c1cccc2c(O)nccc12 [Compound (81), N-(2-hexylaminoethyl)-1-hydroxy-5-isoquinolinesulfonamide] | – | 54
5.05 | CC1CN(C(=N)N)CCN1S(=O)(=O)c1cccc2c(O)nccc12 (stereo not drawn) [Compound (68), 1-(1-hydroxy-5-isoquinolinesulfonyl)-4-amidino-2-methylpiperazine] | – | 48
4.82 | CC(C)C(CNS(=O)(=O)c1cccc2c(O)nccc12)NC(=N)N (stereo not drawn) [Compound (58), N-(2-guanidino-3-methylbutyl)-1-hydroxy-5-isoquinolinesulfonamide] | – | 41
4.89 | CN(CCNS(=O)(=O)c1cccc2c(Cl)nccc12)C1CCCCC1 [Compound (30), N-[2-(N-cyclohexyl-N-methylamino)ethyl]-1-chloro-5-isoquinolinesulfonamide] | 54 | –
6.00 | O=S(=O)(c1cccc2c(Cl)nccc12)N1CCNCC1 [Compound (75), 1-(1-chloro-5-isoquinolinesulfonyl)piperazine] | – | –
5.80 | CC1CNCCN(S(=O)(=O)c2cccc3cnccc23)C1 (stereo not drawn) [Compound (4), 1-(5-isoquinolinesulfonyl)-6-methylhomopiperazine] | – | –
– | NCCNS(=O)(=O)c1cccc2cnccc12 [compound 1, reference compound] | – | 31
4.96 | CCN1CCCN(S(=O)(=O)c2cccc3cnccc23)CC1 [Compound (20), 1-(5-isoquinolinesulfonyl)-4-ethylhomopiperazine] | – | –
4.92 | CCCCCCN1CCCN(S(=O)(=O)c2cccc3cnccc23)CC1 [Compound (23), 1-(5-isoquinolinesulfonyl)-4-hexylhomopiperazine] | – | –
5.10 | CC1NCCCN(S(=O)(=O)c2cccc3cnccc23)C1C (stereo not drawn) [Compound (5), 1-(5-isoquinolinesulfonyl)-2,3-dimethylhomopiperazine] | – | –
– | CC1CN(S(=O)(=O)c2cccc3cnccc23)CCN1 (stereo not drawn) [compound 3, reference compound] | – | 10
4.92 | O=S(=O)(c1cccc2cnccc12)N1CCCNC(c2ccccc2)C1 (stereo not drawn) [Compound (10), 1-(5-isoquinolinesulfonyl)-3-phenylhomopiperazine] | – | –
4.89 | CCCCN1CCCN(S(=O)(=O)c2cccc3cnccc23)CC1 [Compound (22), 1-(5-isoquinolinesulfonyl)-4-butylhomopiperazine] | – | –
5.52 | CCC1CNCCN(S(=O)(=O)c2cccc3cnccc23)C1 (stereo not drawn) [Compound (12), 1-(5-isoquinolinesulfonyl)-6-ethylhomopiperazine] | – | –
5.00 | CC1(C)CN(S(=O)(=O)c2cccc3cnccc23)CCCN1 [Compound (6), 1-(5-isoquinolinesulfonyl)-3,3-dimethylhomopiperazine] | – | –
